Values joined by “and” are separate entries in the source; they are usually repeats but may differ in a detail not shown here. Equal entries are not always repeated. “Also recorded” adds a separate entry of the source.
Key:
[1] = system: 5% DSS induced colitis in SJL/J mice; experiment: DSS-induced colitis in mice, histopathologic inflammation score of large intestine; type: in vivo, mouse
Text: Animals. Female SJL/J mice aged 8-10 weeks were used for this study, purchased from Jackson Laboratories (Bar Harbour, Me.). Female Spraque-Dawley rats (approximately 150-300 grams) were purchased from Charles River Laboratories Inc. (Wilmington, Mass.). Mdr1a−/− mice (FVB.129P2-Abcb1a^tm1BorN7), weight 20-21 g, 8 weeks at initiation of experiments, were housed and maintained (5 per cage) in the animal facility at Amgen Washington. All animals were cared for according to the standard protocols of the Amgen Institutional Animal Care and Use Committee.
Chemical reagents. Dextran sodium sulfate (DSS) with molecular mass 36-50 kDa was purchased from ICN Chemicals, Aurora, Ohio. The DSS solution was prepared as a 5% w/v solution in sterile water (Baxter Healthcare Corporation) and sterile filtered through a 0.45 μm filter before being added to drinking water. Water for the negative control groups was similarly filtered. FK506, (also known as Tacrolimus, active ingredient in Prograf®), chemical name [3S-[3R*[E(1S*,3S*,4S*)],4S*,5R*,8S*,9E,12R*,14R*,15S*,16R*,18S*,19S*,26aR*]]-5,6,8,11,12,13,14,15,16,17,18,19,24,25,26,26a-hexadecahydro-5,19-dihydroxy-3-[2-(4-hydroxy-3-methoxycyclohexyl)-1-methylethenyl]-14,16-dimethoxy-4,10,12,18-tetramethyl-8-(2-propenyl)-15,19-epoxy-3H-pyrodi[2,1-c][1,4]oxaazacyclotricosine-1,7,20,21(4H, 23H)-tetrone monohydrate, was used as a positive control for the inflammation treatment. Tacrolimus is a macrolide immunosuppressant produced by Streptomyces tsukubaensis. The solution of FK506 (Prograf®, Astellas) was prepared as follows: 0.1 mg/ml solution in phosphate buffered saline (PBS) was prepared by diluting 5 mg/ml stock solution. The animals were dosed with FK506 at 1 mg/kg in 200 μl of PBS.
Calcimimetic solutions (Compound A, 3-(2-chlorophenyl)-N-((1R)-1-(3-(methyloxy)phenyl)ethyl)-1-propanamine, Compound B, (1R)-N-((6-(methyloxy)-4′-(trifluoromethyl)-3-biphenylyl)methyl)-1-phenylethanamine, Compound C, N-(2-chloro-5-((((1R)-1-phenylethyl)amino)methyl)phenyl)-5-methyl-3-isoxazolecarboxamide, and Compound D, N-(2-chloro-5-((((1R)-1-phenylethyl)amino)methyl)phenyl)-2-pyridinecarboxamide) were formulated and dosed in free base equivalents at volumes determined by the pharmacologist. Formulation vehicle was 20% (w/v) Captisol (β-Cyclodextrin Sulfobutyl Ether Sodium Salt, Research Grade from CyDex, Inc.) in water with a final pH of 2.0-2.2 at room temperature, adjusted with HCl and NaOH as required. Final concentrations of DMSO never exceeded 0.1% (v/v).
DSS colitis in mice. All experiments were performed on groups of 8 to 10 SJL-J mice, housed in the same cage. For disease induction, mice were given a 5% DSS ad libitum as drinking water for 9 days.
Postmortem evaluation. Mice and rats were euthanized by CO2 asphyxiation. The large intestine were removed from the carcass, evaluated for gross lesions and three individual non-adjacent segments of proximal, middle and distal large intestine 2 centimeters long were immersed in the Zinc Formalin fix for 24 hours. At the end of 24 hours the sections were washed with tap water and put into 70% ethanol. Each section was then cut into three 3 mm pieces (9 pieces per animal), processed into paraffin blocks, and sections were cut in 5 μm sections and stained with hematoxylin and eosin.
Histopathologic changes of the proximal, middle, and distal small and large intestine was scored as a global assessment of inflammation based on inflammatory infiltrate, edema, mucosal erosions or ulcerations as described in Table 6.
For disease induction, treated mice were given 5% DSS in water ad libitum as drinking water for 9 days as described in Example 1 and were concurrently treated orally during that period with one of the treatments listed in Table 8.
FIG. 1 and Table 8 summarize the effect of the calcimimetic compound B on colonic inflammation in 5% DSS induced colitis. Animals were euthanized with carbon dioxide on day nine post treatment. […]

[2] = Absorption from the gut into the bloodstream
[3] = Serum calcium and phosphorus in mdr1a-/- colitis study; type: in vivo, mouse; settings: day 38
Method: (§1) All mice were necropsied on day 38 post initial inoculation. Mice were euthanized by CO2 asphyxiation. Blood was obtained by intracardiac puncture and collected in serum separator tubes. Serum was harvested and stored at −80° C. Colons were dissected below the cecum and just above the anus, and the contents of the lumen were removed. Sections of the proximal, middle, and distal colon regions were fixed in 10% neutral buffered formalin for histopathological analysis.
(§2) Serum clinical chemistry analysis was performed on the Olympus AU400 using standard tests and protocols. Calcium and phosphorus measurements were performed on undiluted serum for all samples. Serum cytokines and chemokines were assayed by Lincoplex mouse cytokine/chemokine muliplex immunoassasy (Millipore; Billerica, Mass.) per manufacturer instructions.
(§3) Results for serum analytes were expressed as the mean±standard error of the mean (SEM). A one-way ANOVA with Tukey's post test was performed using GraphPad Prism. A p-value of 0.05 was used in the calculation to determine whether there were significant differences between any two groups. Results for disease onset were expressed as a standard survival curve. A Log-Rank (Mantel-Cox) Test was performed using GraphPad Prism to determine significance. A p-value of 0.05 was used in the calculation to determine whether there were significant differences between any two groups. Results for clinical score and histology score were expressed as the mean±SEM. A Cochran-Mantel-Haenszel mean score test was performed using SAS software. A p-value of 0.05 was used in the calculation to determine whether there were significant differences between any two groups.

IP-10 = experiment: Serum IP-10 in mdr1a-/- colitis study; type: in vivo, mouse
Method: as §1, §2, §3

[4] = system: colitis in mdr1a-/- mice induced by H. bilis; experiment: Colitis in mdr1a-/- mice infected with Helicobacter bilis (clinical score, disease onset, histology); type: in vivo, mouse; settings: for Total LI score (Max = 12), individual animals / GI Inflammation LI DISTAL, individual animals / GI Inflammation LI MIDDLE, individual animals / GI Inflammation LI PROXIMAL, individual animals: listed as R-B; for GI Inflammation LI DISTAL, individual animals / GI Inflammation LI MIDDLE, individual animals / GI Inflammation LI PROXIMAL, individual animals: score 0-4; for disease onset compared to vehicle control group: Log-Rank test, p-value=0.04
[5] = 30 mg/kg oral, 5% DSS 9 days, vs Captisol vehicle
[6] = 10 mg/kg oral, 5% DSS 9 days, vs Captisol vehicle, p<0.01
[7] = R-Compound B 10 and 3 mg/kg groups

Cc1cc(C(=O)Nc2cc(CN[C@H](C)c3ccccc3)ccc2Cl)no1 [Compound C, N-(2-chloro-5-((((1R)-1-phenylethyl)amino)methyl)phenyl)-5-methyl-3-isoxazolecarboxamide]
inflammation scores in all parts of colon compared to vehicle (FIG. 2) ([1]; 30 mg/kg oral, 5% DSS): reduce inflammation scores | decrease in mean large intestine inflammatory score, combined [1, 5]: 30% | decrease in mean large intestine inflammatory score, distal [1, 5]: 49% | decrease in mean large intestine inflammatory score, middle [1, 5]: 20% | decrease in mean large intestine inflammatory score, proximal [1, 5]: 15% | absorption from the gut into the bloodstream [2]: not to be absorbed readily

COc1ccc(CN[C@H](C)c2ccccc2)cc1-c1ccc(C(F)(F)F)cc1 [Compound B, (1R)-N-((6-(methyloxy)-4′-(trifluoromethyl)-3-biphenylyl)methyl)-1-phenylethanamine]
serum phosphorus compared to the S-Compound B treated group only ([3]; 3 mg/kg PO daily): significant elevation | serum calcium compared to CTLA4 and vehicle control groups ([3]; 10 mg/kg PO daily): significant calcium reductions | serum phosphorus levels compared to all control groups ([3]; 10 mg/kg PO daily): significantly elevated | serum calcium levels compared to uninfected controls ([3]; both R-Compound B groups (10 and 3 mg/kg PO daily)): significantly reduced | difference in production of serum IP-10 vs vehicle control group (IP-10; 10 mg/kg PO daily, p=0.06): approached significance | elevation of serum IP-10 (IP-10; treatment groups vs vehicle treated animals): less elevation | animals lacking inflammatory changes (colon normal) ([1]; 10 mg/kg oral, 5% DSS 9 days): Four out of ten | mean large intestine inflammatory score, combined segments [1, 6]: statistically significant decreased | mean large intestine inflammatory score, middle segment [1, 6]: statistically significant decreased | mean large intestine inflammatory score, distal segment ([1]; 10 mg/kg oral, 5% DSS 9 days, vs Captisol vehicle, p<0.05): statistically significant decreased | Animals with colonic inflammation/total animals ([1]; 5% DSS 9 days, SJL/J mice, oral, Compound B 10 mg/kg, FK 506 1 mg/kg): 6/10 | mean inflammatory score in combined colonic segments compared to FK 506 treatment ([1]; Compound B 10 mg/kg vs FK 506 1 mg/kg, oral, 5% DSS): statistically significant (p<0.05) decrease | Average LI score ([4]; 3 mg/kg PO daily, day 38): 1.6 | GI Inflammation LI DISTAL, Segment Mean ([4]; 3 mg/kg PO daily, day 38): 0.60 | GI Inflammation LI MIDDLE, Segment Mean ([4]; 3 mg/kg PO daily, day 38): 0.60 | GI Inflammation LI PROXIMAL, Segment Mean ([4]; 3 mg/kg PO daily, day 38): 0.40 | Total LI score (Max = 12), individual animals ([4]; 3 mg/kg PO daily, day 38): 0 (8×) and 8 (2×) | GI Inflammation LI DISTAL, individual animals ([4]; 3 mg/kg PO daily, day 38): 0 (8×) and 3 (2×) | GI Inflammation LI MIDDLE, individual animals ([4]; 3 mg/kg PO daily, day 38): 0 (8×) and 3 (2×) | GI Inflammation LI PROXIMAL, individual animals ([4]; 3 mg/kg PO daily, day 38): 0 (8×) and 2 (2×) | day on which an animal began showing clinical signs of colitis (disease onset) ([4]; 3 mg/kg PO daily, first and second animal, listed as R-Compound B): 17 days and 31 days | day on which animals began showing clinical symptoms (disease onset) ([4]; 10 mg/kg PO daily): 32 days | disease onset compared to vehicle control group ([4]; 10 mg/kg PO daily): significantly different | disease onset compared to vehicle control group ([4]; 10 mg/kg PO daily, listed as R-Compound B): statistically significant difference | Average LI score ([4]; 10 mg/kg PO daily, day 38): 0.9 | GI Inflammation LI DISTAL, Segment Mean ([4]; 10 mg/kg PO daily, day 38): 0.30 | GI Inflammation LI MIDDLE, Segment Mean ([4]; 10 mg/kg PO daily, day 38): 0.20 | GI Inflammation LI PROXIMAL, Segment Mean ([4]; 10 mg/kg PO daily, day 38): 0.40 | Total LI score (Max = 12), individual animals ([4]; 10 mg/kg PO daily, day 38): 2 and 0 (8×) and 7 | GI Inflammation LI DISTAL, individual animals ([4]; 10 mg/kg PO daily, day 38): 0 (9×) and 3 | GI Inflammation LI MIDDLE, individual animals ([4]; 10 mg/kg PO daily, day 38): 0 (9×) and 2 | GI Inflammation LI PROXIMAL, individual animals ([4]; 10 mg/kg PO daily, day 38): 2 (2×) and 0 (8×) | clinical scores compared to vehicle group ([4]; 10 mg/kg PO daily, final day (day 38), p<0.05): significantly lower clinical scores | anal inflammation score of animals showing clinical symptoms [4, 7]: none had an anal inflammation score above moderate | development of diarrhea [4, 7]: no animal developed diarrhea | number of animals with clinical symptoms of disease on the final day of the study ([4]; day 38, per treatment group (S-Compound B 10 mg/kg, n=5; R-Compound B 10 mg/kg and 3 mg/kg, n=10 each)): one | percentage of animals with colon pathology ([4]; each R-Compound B group (10 and 3 mg/kg)): 20% | overall effect on development, onset, incidence and severity of colitis ([4]; mdr1a-/- mice, 10 or 3 mg/kg PO daily, listed as R-Compound B): attenuates the development of colitis; also recorded: delayed the onset of colitis and reduced the severity of disease; also recorded: reduced the incidence and severity of disease; also recorded: inhibited the development and severity of colitis | animals with colitis / colon pathology by histology ([4]; per group: R-Compound B 10 and 3 mg/kg each, S-Compound B 10 mg/kg): 2 out of 10

C[C@@H](NCc1ccc(Cl)c(NC(=O)c2ccccn2)c1)c1ccccc1 [Compound D, N-(2-chloro-5-((((1R)-1-phenylethyl)amino)methyl)phenyl)-2-pyridinecarboxamide]
inflammation scores in all parts of colon compared to vehicle (FIG. 2) ([1]; 30 mg/kg oral, 5% DSS): reduce inflammation scores | animals lacking inflammatory changes (colon normal) ([1]; 30 mg/kg oral, 5% DSS 9 days): Two out of eight | decrease in mean large intestine inflammatory score, combined [1, 5]: 48% | decrease in mean large intestine inflammatory score, distal [1, 5]: 68% | decrease in mean large intestine inflammatory score, middle [1, 5]: 29% | decrease in mean large intestine inflammatory score, proximal [1, 5]: 44% | absorption from the gut into the bloodstream [2]: not to be absorbed readily

— US8093299B2, “Methods of treating bowel disorders” (Amgen Inc., priority 2007, dated 2012)
